We go through 25 compounds from ChEMBL document CHEMBL1136576, “Synthesis of N,N',N"-trisubstituted thiourea derivatives and their antagonist effect on the vanilloid receptor” (Bioorg Med Chem Lett, 2003).

In one assay the target is T1, Vanilloid receptor (Rattus norvegicus, UniProt Q9ERZ8+Q9WUD2+O35433). Nature of the assay: Antagonistic activity against vanilloid receptor as concentration to reduce the response to […] by 50% from neonatal rat culture spinal sensory neurons using [Ca2+] -influx assay. It counts as functional.
With `COc1cc(CCCN(CCc2ccc([N+](=O)[O-])cc2)/C(S)=N/CCc2ccccc2)ccc1O`, the 50% inhibitory concentration (IC50) amounted to 0.5 nM.

For `COc1cc(CCCN(CCc2ccc(C)cc2)/C(S)=N/CCc2ccccc2)ccc1O`, the IC50 is reported as 0.95 nM.

Compound `COc1cc(CCCN(/C(S)=N/CCc2ccccc2)C(c2ccccc2)c2ccccc2)ccc1O` gave an IC50 of 0.46 nM.

The compound `COc1cc(CCCN(Cc2ccccc2)/C(S)=N/CCc2ccccc2)ccc1O` had an IC50 of 0.95 nM.

For `COc1cc(CCCN(CCc2ccc(Cl)cc2)/C(S)=N/CCc2ccccc2)ccc1O`, the IC50 is 0.55 nM.

The compound `COc1cc(CCCN(/C(S)=N/CCc2ccccc2)C2CCCCC2)ccc1O` yielded a 50% inhibitory concentration (IC50) of 3 nM.

Compound `CC(C)N(CCCc1ccc(O)c(O)c1)/C(S)=N/CCc1ccccc1` gave an IC50 of 9.3 nM.

In turn, `CCN(CCCc1ccc(O)c(OC)c1)/C(S)=N/CCc1ccccc1` registered an IC50 of over 30 nM.

For the compound `CCCN(CCCc1ccc(O)c(OC)c1)/C(S)=N/CCc1ccccc1`, the IC50 came out at 12 nM.

On to `CC(C)N(CCCc1ccc(O)cc1)/C(S)=N/CCc1ccccc1`, for which the IC50 is recorded as over 30 nM.

Regarding `COc1cc(CCCN(CCc2ccccc2)/C(S)=N/CCc2ccc(F)cc2)ccc1O`, the IC50 came to 5.1 nM.

`COc1ccc(CCCN(/C(S)=N/CCc2ccccc2)C(C)C)cc1OC` registered an IC50 of 10.5 nM.

The compound `COc1cc(CCCN(CCc2ccc(F)cc2)/C(S)=N/CCc2ccccc2)ccc1O` returned an IC50 of 1.2 nM.

Compound `COc1cc(CCCCN(CCc2ccccc2)/C(S)=N/CCc2ccccc2)ccc1O` registered an IC50 of 6.1 nM.

In turn, `COc1ccc(CCN(CCCc2ccc(O)c(OC)c2)/C(S)=N/CCc2ccccc2)cc1` yielded a half-maximal inhibitory concentration (IC50) of 0.72 nM.

Take `CCCCN(CCCc1ccc(O)c(OC)c1)/C(S)=N/CCc1ccccc1`: the IC50 was determined as 10 nM.

In turn, `CCCCCCCCN(CCCc1ccc(O)c(OC)c1)/C(S)=N/CCc1ccccc1` came in with an IC50 of over 30 nM.

On to `COc1cc(CCCN(CCCc2ccccc2)/C(S)=N/CCc2ccccc2)ccc1O`, for which the IC50 was determined as 3.2 nM.

Compound `COc1cc(CCCN(CCc2ccccc2)/C(S)=N/CCc2ccccc2)ccc1O` returned a 50% inhibitory concentration (IC50) of 0.32 nM.

As for `COc1cc(CCCN(CCc2ccccc2)/C(S)=N/CCc2ccc(Cl)cc2)ccc1O`, the IC50 was determined as 2.4 nM.

The compound `COc1cc(CCCN(/C(S)=N/CCc2ccccc2)C(C)C)ccc1O` had an IC50 of 2.5 nM.

Turning to `Oc1cc2c(cc1O)CN(C(=S)NCCc1ccc(Cl)cc1)CCC2` [CAPSAZEPINE], the IC50 stood at 650000 nM.

In the next assay the target is T1, Vanilloid receptor. Nature of the assay: Agonistic activity towards vanilloid receptor, [Ca2+] influx in neonatal rat spinal sensory neuronal culture. The assay is classed as functional.
Compound `COc1cc(CCCN(C)/C(S)=N/CCc2ccccc2)ccc1O` yielded an EC50 of over 30 µM.

In turn, `COc1cc(CCC/N=C(\S)NCCc2ccccc2)ccc1O` had an EC50 of over 30 µM.

On to `COc1cc(CCC2CCCN2/C(S)=N/CCc2ccccc2)ccc1O` (stereo not given), for which the 50% effective concentration (EC50) came to 3 µM.

The IC50 is the concentration at which inhibition is half-maximal. Read a low IC50 as inhibition by little substance. By EC50 is commonly meant the concentration at which the effect is half-maximal. A lower EC50 goes with greater potency.
